Data: patent publication US5780642A, “Imidazole derivatives as therapeutic agents” (KNOLL Aktiengesellschaft, priority 1993, dated 1998)
Structures can show the parent of a compound that is named as a salt.

Tested on: Zymosan Stimulated Macrophages (arachidonic acid release)
Assay: Test A: Inhibition of Arachidonic Acid Release from Zymosan Stimulated Macrophages
Type: cell-based, mouse (female MF1 mice)
Conditions: Mus musculus, Macrophage, inhibition of arachidonic acid release, zymosan stimulated mouse peritoneal macrophages; tested at 100, 50, 20, 10, 5 and 1 μM; ≤100 μM considered active; read-out: Test A IC50
Summary of the method: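 Peritoneal macrophages from female MF1 mice, labelled overnight with [3H]-arachidonic acid (1.6 μCi/ml), then exposed to compound 24 h unstimulated and re-dosed with zymosan stimulus for 5 h at 37 °C. Released radioactivity counted by scintillation; spontaneous release subtracted; IC50 from six concentrations (1–100 μM), quadruplicate wells.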

SMILES | IC50 [µM]
CC(CNCCCn1ccnc1)Oc1ccc(Cl)cc1 (centres unmarked) [Example 15, 2-(4-chlorophenoxy)-3'-(imidazol-1-yl)dipropylamine dihydrochloride] | 27
c1ccc(OCCNCCCn2ccnc2)cc1 [Example 3, 3-(Imidazol-1-yl)-N-(2-phenoxyethyl)propylamine] | 30
CC(C)(NCCCc1ncc[nH]1)c1ccccc1 [Example 87, 3-(imidazol-2-yl)-N-(1-methyl-1-phenylethyl)propylamine] | 25
CC(C)(CNCCCn1ccnc1)Oc1ccccc1Cl [Example 4, 2-(2-Chlorophenoxy)-3'-(imidazol-1-yl)-2-methyldipropylamine] | 29
Cc1nccn1CCCNCCOc1ccc(Cl)cc1 [Example 8, N-[2-(4-Chlorophenoxy)ethyl]-3-(2-methylimidazol-1-yl)propylamine] | 14
Cl.Cl.Clc1ccc(OCCNCCCn2ccnc2)cc1 [Example 2, N-[2-(4-chlorophenoxy)ethyl]-3-(imidazol-1-yl)propylamine dihydrochloride] | 26
CC(C)(COc1ccc(Cl)cc1)NCCCn1ccnc1.Cl.Cl [Example 17, N-[2-(4-chlorophenoxy)-1,1-dimethylethyl]-3-(imidazol-1-yl)propylamine dihydrochloride] | 12
Cl.Cl.Clc1ccc2c(c1)CCC2NCCCn1ccnc1 (centres unmarked) [Example 88, N-(5-chloroindan-1-yl)-3-(imidazol-1-yl)propylamine dihydrochloride] | 28
CN(CCCn1ccnc1)CCOc1ccc(Cl)cc1 [Example 64, N-[2-(4-chlorophenoxy)ethyl]-3-(imidazol-1-yl)-N-methylpropylamine] | 32
Clc1ccc(OCCNCCCCCn2ccnc2)cc1 [Example 16, N-[2-(4-chlorophenoxy)ethyl]-5-(imidazol-1-yl)pentylamine dihydrochloride hemihydrate] | 7

Same assay, conditions: Mus musculus, Macrophage, read-out: Test A IC50

SMILES | IC50 [µM]
CC(C)(CSc1ccc(Cl)cc1)NCCCn1ccnc1 [Example 19, N-[2-(4-Chlorophenylthio)-1,1-dimethylethyl]-3-(imidazol-1-yl)propylamine dihydrochloride] | 8

Tested on: Carrageenan-induced rat paw oedema
Assay: Test B: Carrageenan-induced rat paw oedema test
Type: in vivo
Conditions: 100 mg/kg oral; active = 20% or greater inhibition of paw oedema in at least two out of three tests
Protocol: Test B was carried out in the following way: Carrageenan-induced rat paw oedema test Female rats, weight range 125-150 g were fasted overnight. One of the hind legs of each animal was marked with a line at the connection between the cuboid/navicular and calcaneus/talus bones. Groups of six rats were orally dosed at 10 ml/kg, in random order, with a given dose of the test compound given as a solution or suspension in 10% (w/v) aqueous acacia solution. One hour after dosing, 0.1 ml of 1% (w/v) sterile carrageenan λ in normal saline was injected deeply into the plantar surface of the marked hind foot of each rat. The volume of the foot (up to the marked line) was measured immediately after injection using duplicate water displacement readings. Three hours after injection the foot volume was measured again and the percentage increase in foot volume relative to the initial reading was calculated. The increase in foot volume (i.e. the degree of oedema) in drug treated animals when compared with that in the drug untreated control gave the degree of inhibition of paw oedema by the drug. Compounds were considered to be active in this test if they produced a 20% or greater inhibition of paw oedema in at least two out of three tests after oral dosing at 100 mg/kg. Statistical significance was assessed using the Student's t test for single dose studies and Dunnett's test for multiple dose studies. More advantageous compounds were active in both Tests A and B.

SMILES | activity in Test B (inhibition of paw oedema)
CC(CNCCCn1ccnc1)Oc1ccc(Cl)cc1 (centres unmarked) [Example 15, 2-(4-chlorophenoxy)-3'-(imidazol-1-yl)dipropylamine dihydrochloride] | active
c1ccc(OCCNCCCn2ccnc2)cc1 [Example 3, 3-(Imidazol-1-yl)-N-(2-phenoxyethyl)propylamine] | active
CC(C)(CNCCCn1ccnc1)Oc1ccccc1Cl [Example 4, 2-(2-Chlorophenoxy)-3'-(imidazol-1-yl)-2-methyldipropylamine] | active
Cc1nccn1CCCNCCOc1ccc(Cl)cc1 [Example 8, N-[2-(4-Chlorophenoxy)ethyl]-3-(2-methylimidazol-1-yl)propylamine] | active
Cl.Cl.Clc1ccc(OCCNCCCn2ccnc2)cc1 [Example 2, N-[2-(4-chlorophenoxy)ethyl]-3-(imidazol-1-yl)propylamine dihydrochloride] | active
Cl.Cl.Clc1ccc2c(c1)CCC2NCCCn1ccnc1 (centres unmarked) [Example 88, N-(5-chloroindan-1-yl)-3-(imidazol-1-yl)propylamine dihydrochloride] | active
CN(CCCn1ccnc1)CCOc1ccc(Cl)cc1 [Example 64, N-[2-(4-chlorophenoxy)ethyl]-3-(imidazol-1-yl)-N-methylpropylamine] | active

Tested on: Carrageenan-induced pleurisy (migrating leukocytes)
Assay: Carrageenan-induced pleurisy in rats
Type: in vivo
Conditions: rat, p.o. at time of challenge and 24h and 48h thereafter; 10 mg/kg
Protocol: The most advantageous compounds of formula I were active in Tests A and B and also in the following test. Carrageenan-induced pleurisy in rats was carried out as described by Ackerman et al. J. Pharmacol. Exp. Therap. 1980, 215, 588-595. Migrating leukocytes were harvested by lavage of the thoracic cavity 72h after injection of 0.3 ml 1% λcarrageenan in sterile isotonic saline. Test compounds were administered p.o. at the time of challenge and 24h and 48 h thereafter.

SMILES | activity in carrageenan-induced pleurisy at 10 mg/kg
CC(CNCCCn1ccnc1)Oc1ccc(Cl)cc1 (centres unmarked) [Example 15, 2-(4-chlorophenoxy)-3'-(imidazol-1-yl)dipropylamine dihydrochloride] | active
Cl.Cl.Clc1ccc(OCCNCCCn2ccnc2)cc1 [Example 2, N-[2-(4-chlorophenoxy)ethyl]-3-(imidazol-1-yl)propylamine dihydrochloride] | active
CC(C)(COc1ccc(Cl)cc1)NCCCn1ccnc1.Cl.Cl [Example 17, N-[2-(4-chlorophenoxy)-1,1-dimethylethyl]-3-(imidazol-1-yl)propylamine dihydrochloride] | active
Cl.Cl.Clc1ccc2c(c1)CCC2NCCCn1ccnc1 (centres unmarked) [Example 88, N-(5-chloroindan-1-yl)-3-(imidazol-1-yl)propylamine dihydrochloride] | active
CN(CCCn1ccnc1)CCOc1ccc(Cl)cc1 [Example 64, N-[2-(4-chlorophenoxy)ethyl]-3-(imidazol-1-yl)-N-methylpropylamine] | active
Clc1ccc(OCCNCCCCCn2ccnc2)cc1 [Example 16, N-[2-(4-chlorophenoxy)ethyl]-5-(imidazol-1-yl)pentylamine dihydrochloride hemihydrate] | active

Tested on: lymphocyte proliferation (BALB/c responder and C57BL/6 stimulator spleen cells)
Assay: Test C: Mixed Lymphocyte Reaction
Type: cell-based, mouse (BALB/c and C57BL/6)
Conditions: Mus musculus, final concentration, read-out: IC50 (50% inhibition of the immune response)
Protocol: A mixed lymphocyte reaction (MLR) occurs when lymphocytes from two genetically dissimilar individuals, or inbred strains of mice are cultured together. An MLR results in the activation and proliferation of lymphocytes, which is measured by the incorporation of radiolabelled thymidine into the cellular DNA synthesised during cell division. A `one-way` MLR is used to determine the immunosuppressive activity of test compounds in vitro. In this reaction one population of spleen cells serves as the stimulator cells and is treated with mitomycin C to prevent cell division. Spleen cells from a second allogeneic population (responder cells) are untreated and when mixed with the stimulator cells are able to undergo division which is measured. The degree of proliferation is measured in the presence and absence of test compound to assess the immunosuppressive activity of the compound. The techniques for carrying out lymphocyte proliferation assays including MLRs are well known, eg Bradley, pages 156-166, in Mishell and Shiigi, Eds. Selected Methods in Cellular Immunology (Freeman, San Francisco, 1980); and Battisto et al, methods in Enzymology 1987; 150: 83-91. Various slight modifications of these techniques are in use and that used herein is described in Gibb, Webber and Bowen, J Immunological Methods 1985; 81: 107-113. The immunomodulant activity of the preferred compounds was determined in a mixed lymphocyte reaction (Test C) in the following manner: Mixed Lymphocyte Reaction Cell suspensions obtained from the spleens of female BALB/c and C57BL/6 strain mice of between 6 and 9 weeks of age were used as sources of responder and stimulator cells respectively. The mice were killed using a rising concentration of CO2 and the spleens removed aseptically and teased using a scalpel and forceps to produce a single cell suspension in Hanks balanced salt solution (HBSS). The suspensions were filtered through cell strainers (Falcon), sedimented by centrifugation and resuspended in Tris-buffered ammonium chloride pH 7.2 (medium D) to lyse the erythrocytes. The cells were sedimented again and washed twice in HBSS before resuspending in complete RPMI 1640 tissue culture medium (medium E). The C57BL/6 cells were resuspended to 9 mls per spleen and a solution of mitomycin C at 400 μg/ml in medium E added to give a final concentration of 40 μg/ml. After incubation of the C57BL/6 cells at 37° C. for 30 minutes in an atmosphere of 5% CO2 and 95% air, the cells were sedimented and washed 3 times in medium E. Both cell suspensions were diluted in medium E to 5×10^6 cells/ml. 100 μl of each of the responder and stimulator cell suspensions were aliquoted into the wells of 96 well flat bottom microtitre plates containing 50 μl of test compound at an appropriate dilution (initially 50 μM diluted in medium E from a stock solution at 100 mM in dimethyl sulphoxide) giving a final test compound concentration of 10 μM (final dilution). […] After four days of culture at 37° C. in a humidified atmosphere of 5% CO2 and 95% air, 1 μCi of tritiated thymidine in 20 μl of medium E was added to each well and the plates incubated for a further 24 hours. […] The filters were transferred to vials to which 2 mls of Packard Emulsifier-Safe scintillation fluid was added and the radioactivity from the incorporated thymidine was counted in a Packard liquid scintillation counter. […] The data were analysed to determine the percentage inhibition of lymphocyte proliferation by the test compound. […]

SMILES | IC50 [µM]
CC(C)(NCCCc1ncc[nH]1)c1ccccc1 [Example 87, 3-(imidazol-2-yl)-N-(1-methyl-1-phenylethyl)propylamine] | 5.8
CC(C)(CSc1ccc(Cl)cc1)NCCCn1ccnc1 [Example 19, N-[2-(4-Chlorophenylthio)-1,1-dimethylethyl]-3-(imidazol-1-yl)propylamine dihydrochloride] | 1.7
Cc1nccn1CCCNCCOc1ccc(Cl)cc1 [Example 8, N-[2-(4-Chlorophenoxy)ethyl]-3-(2-methylimidazol-1-yl)propylamine] | 2.4
CC(C)(COc1ccc(Cl)cc1)NCCCn1ccnc1.Cl.Cl [Example 17, N-[2-(4-chlorophenoxy)-1,1-dimethylethyl]-3-(imidazol-1-yl)propylamine dihydrochloride] | 5.9
Clc1ccc(OCCNCCCCCn2ccnc2)cc1 [Example 16, N-[2-(4-chlorophenoxy)ethyl]-5-(imidazol-1-yl)pentylamine dihydrochloride hemihydrate] | 2.8

Tested on: platelet aggregation
Assay: not given
Conditions: cited from earlier work

SMILES | inhibitory effect on platelet aggregation in vitro
CC(CCn1ccnc1)NCc1ccccc1 (centres unmarked) [Compound A] | inhibitory effect on platelet aggregation in vitro

Tested on: not given
Assay: not given
Conditions: Indian Journal of Pharmacology 1973, 5, 428 / Pfl. Krankh. 1975, 3, 149; cited from earlier work

SMILES | antiinflammatory activity (alleged)
CCC(NCC(C)N1CCOCC1)c1ccc(Cl)c(Cl)c1 (stereo not drawn) [N-[2-(4-Morpholino)propyl]-α-ethyl-3,4-dichlorobenzylamine] | alleged to have antiinflammatory activity

Tested on: not given
Assay: not given
Conditions: cited from earlier work

SMILES | undesirable side-effects in mice
CCC(NCC(C)N1CCOCC1)c1ccc(Cl)c(Cl)c1 (stereo not drawn) [N-[2-(4-Morpholino)propyl]-α-ethyl-3,4-dichlorobenzylamine] | wide range of undesirable side-effects in mice
